Data set [1] relates to HCV replicon cells Huh 9B. The class given is cell-based. As to conditions: concentration reducing total cell area by 50% relative to DMSO controls; 72 h. As for the experimental part:
(§1) HCV replicon cells Huh 9B (ReBlikon), containing the firefly luciferase—ubiquitin—neomycin phosphotransferase fusion protein and EMCV-IRES driven HCV polyprotein with cell culture adaptive mutations.
(§2) Cells were cultured at 37° C. in a 5% CO2 environment and split twice a week on seeding at 2×10^6 cells/flask on day 1 and 1×10^6 3 days later. G418 at 0.5 mg/ml was added to the culture medium but not the assay medium. The culture medium consisted of DMEM with […] glucose and glutamax (Gibco 61965-026) supplemented with 1×non-essential amino acids (Invitrogen 11140-035), penicillin (100 IU/ml)/streptomycin (100 μg/ml) (Invitrogen 15140-122), FCS (10%, 50 ml) and […] (Invitrogen 10131-027) & 10% Australian foetal calf serum (Invitrogen 10099-141).
(§3) A flask of cells was trypsinised and a cell count carried out. Cells were diluted to 100,000 cells/ml and 100 μl of this used to seed one opaque white 96-well plate (for the replicon assay) and one flat-bottomed clear plate (for the tox assay) for every five compounds to be tested for IC50. Wells G12 and H12 were left empty in the clear plate as the blank. Plates were then incubated at 37° C. in a 5% CO2 environment for 24 h.
(§4) On the following day compound dilutions are made up in medium at twice their desired final concentration in a clear round bottomed plate. All dilutions have a final DMSO concentration of 1%.
(§5) Once the dilution plate had been made up, controls and compounds were transferred to the assay plates (containing the cells) at 100 μl/well in duplicate wells. Exception: no compound was added to wells A1 and A2 of either plate and 100 μl of 1% DMSO was added to these instead. Plates were then incubated at 37° C. with 5% CO2 for 72 h.
The clear plate was stained with 100 μl 0.5% methylene blue in 50% ethanol at room temperature for lh, followed by solvation of the absorbed methylene blue in 100 μl per well of 1% lauroylsarcosine. Absorbance of the plate was measured on a microplate spectrophotometer (Molecular Devices) and the absorbance for each concentration of compound expressed as a proportion of the relative DMSO control. The TD50, the concentration of drug required to reduce the total cell area by 50% relative to the DMSO controls, can be calculated by plotting the absorbance at 620 nm minus background against drug concentration.

Data set [2] addresses T1, Recombinant HCV polymerase (BK strain) (Hepatitis C virus genotype 1b, UniProt P26663).
T1 construct: Recombinant HCV polymerase (BK strain) was expressed and purified from E. coli with a 21 amino acid C-terminal deletion; His6; made in house; host or cells: E. coli
In words: HCV polymerase enzyme assay (radiometric [33P]-UTP incorporation). The class given is biochemical, HCV 1b. On the procedure: Compounds were tested for inhibition of HCV polymerase using a radiometric [^33P]-UTP incorporation assay and a biotinylated U13:PolyA primer:template RNA substrate.
Recombinant HCV polymerase (BK strain) was expressed and purified from E. coli with a 21 amino acid C-terminal deletion and a His6-tag. The general assay buffer consisted of 20 mM Tris (pH 7.5), 25 mM KCl, 5 mM MgCl2, 3 mM DTT, 0.5 mg/ml BSA, 0.01% Tween20. The standard reaction, in 96 well plates, contained 10 μl of diluted compound, 50 μl of substrate and 40 μl of enzyme. Compounds, supplied as 10 mM stocks in DMSO, were diluted initially in neat DMSO, and subsequently buffer was added to give a DMSO concentration of 30%; 10 μl of this was added to the assay plate to give a final concentration in the 100 μl assay of 3% DMSO. The biotinylated U13:PolyA RNA substrate was pre-annealed with 40 μM 5′-biotinylated U13 (Dharmacon) and 213 μg/ml PolyA (Amersham Biosciences) in water incubated at 70° C. for 5 minutes before being cooled on ice. Substrate (50 μl) was added in buffer to give a final concentration in the 100 μl assay of 125 nM biotinylated U13:0.63 μg/ml PolyA and 200 nM UTP with 0.4 μCi [^33P]-UTP per well (Perkin Elmer). The reaction was initiated by the addition of 40 μl of enzyme in buffer to give 100 nM final concentration. The reaction was incubated at 25° C. for 100 minutes and then stopped by addition of 100 μl of 100 mM EDTA. The samples were then transferred to 96 well Streptavidin-coated FlashPlates (Perkin Elmer) and incubated at room temperature for ˜1 hour to allow binding to occur. The plates were then washed three times with phosphate-buffered saline containing 0.05% Tween20 in an automated plate washer to remove unincorporated [^33P]-UTP, and then counted in a
Each plate included a set of positive controls (no compound, maximum signal) and negative controls (no enzyme, minimum signal) and in each run at least one reference is compound was included to validate the assay. The IC50, concentration required to inhibit the enzyme activity by 50%, was calculated using an 8-point IC50 curve and fitted using the program XLfit (IDBS).

Data set [3] relates to HCV replicon cells Huh 9B. In words: HCV replicon assay (luciferase). The class given is cell-based. The conditions noted are these: Hepatitis C virus, reduction of replicon level by 50% vs untreated cell control, 72 h. As for the experimental part:
as §1, §2, §3, §4, §5
At the end of the incubation time, the cells in the white plate were harvested by washing in PBS (100 μL per well) and gently tapping dry before addition of […] of lysis buffer (25 mM tris-phosphate, 8 mM MgCl2, 1 mM DTT, 1% Triton X-100, 15% glycerol. pH to 7.8 using KH2PO4 prior to triton and glycerol addition. Substrate was prepared: 23.5 mM beetle luciferin (Promega E1603), 26 mM ATP (Sigma O-2060) in […] Tris buffer pH 7.8 aliquoted and stored at −80° C. was thawed and diluted 1:50 in luciferase assay buffer (20 mM Tricine (Sigma T-0377), 1.07 mM magnesium carbonate hydroxide (Sigma M-5671), 0.1 mM EDTA (Sigma E-5134), 2.67 mM MgSO4(BDH 101514Y), 33.3 mM dithiothreitol (Sigma 150460) pH 7.8).
The M injector of the microplate luminometer (Lmax, Molecular Devices) was primed with 5×300 μl injections of the diluted substrate. After 5-60 min incubation in lysis buffer at room temperature, a plate was inserted into the luminometer and 100 μl luciferase assay reagent was added by the injector on the luminometer. The signal was measured using a 1 second delay followed by a 4 second measurement programme. The IC50, the concentration of the drug required for reducing the replicon level by 50% in relation to the untreated cell control value, can be calculated from the plot of the percentage reduction of the luciferase activity vs. drug concentration.
(In general: In antiviral work, replicon cells carry a viral genome segment that copies itself.)

This note sets out measurements from US20110059043A1, “CHEMICAL COMPOUNDS” (priority 2009, published 2011).

T1 sequence (P26663 2420-2989): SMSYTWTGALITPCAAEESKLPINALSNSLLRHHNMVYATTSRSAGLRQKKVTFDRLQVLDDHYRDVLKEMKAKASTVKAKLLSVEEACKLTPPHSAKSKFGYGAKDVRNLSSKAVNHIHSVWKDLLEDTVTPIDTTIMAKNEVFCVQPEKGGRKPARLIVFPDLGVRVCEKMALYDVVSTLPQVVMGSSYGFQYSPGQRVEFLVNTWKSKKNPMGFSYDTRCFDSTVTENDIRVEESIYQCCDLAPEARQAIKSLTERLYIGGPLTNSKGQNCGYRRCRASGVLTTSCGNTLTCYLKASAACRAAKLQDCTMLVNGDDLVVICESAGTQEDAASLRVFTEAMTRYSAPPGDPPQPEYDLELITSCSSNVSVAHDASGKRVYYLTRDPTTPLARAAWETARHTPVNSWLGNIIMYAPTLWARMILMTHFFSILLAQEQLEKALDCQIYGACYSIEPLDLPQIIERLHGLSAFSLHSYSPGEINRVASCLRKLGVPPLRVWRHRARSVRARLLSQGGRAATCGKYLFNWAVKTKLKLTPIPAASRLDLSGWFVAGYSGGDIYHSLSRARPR

Consider `CS(=O)(=O)NCCCOc1ccc(Cl)cc1C(=O)NC1N=C(c2c(Cl)cc(Cl)cc2Cl)c2ccccc2NC1=O` (stereo not drawn) [Example 27, 5-Chloro-2-(3-(methylsulfonamido)propoxy)-N-(2-oxo-5-(2,4,6-trichlorophenyl)-2,3-dihydro-1H-benzo[e][1,4]diazepin-3-yl)benzamide], for which the “Replicon Assay Value TD50” value in data set [1] came to 13.62 µM. Moreover, the values for the IC50 in data set [2] and in data set [3] were 824 nM and 1910 nM, respectively.

With `CCS(=O)(=O)NCCCOc1ccc(Cl)cc1C(=O)NC1N=C(c2c(Cl)cc(Cl)cc2Cl)c2ccccc2NC1=O` (stereo not drawn) [Example 28, 5-chloro-2-(3-(ethylsulfonamido)propoxy)-N-(2-oxo-5-(2,4,6-trichlorophenyl)-2,3-dihydro-1H-benzo[e][1,4]diazepin-3-yl)benzamide], in data set [1], the “Replicon Assay Value TD50” value was determined as 8.004 µM. Further, the IC50 (as a rule, the concentration at which inhibition is half-maximal) in data set [2] was 850 nM; in data set [3], 2130 nM.

For the compound `CS(=O)(=O)CCOc1ccc(Cl)cc1C(=O)NC1N=C(c2c(Cl)cc(Cl)cc2Cl)c2ccccc2NC1=O` (stereo not drawn) [Example 29, 5-Chloro-2-(2-(methylsulfonyl)ethoxy)-N-(2-oxo-5-(2,4,6-trichlorophenyl)-2,3-dihydro-1H-benzo[e][1,4]diazepin-3-yl)benzamide], the “Replicon Assay Value TD50” value in data set [1] turned out to be 15.249 µM. The IC50 was determined as 747 nM in data set [2] and 2770 nM in data set [3].

Regarding `COCCOc1ncc(F)cc1C(=O)NC1N=C(c2c(Cl)cc(Cl)cc2Cl)c2ccccc2NC1=O` (stereo not drawn) [Example 30, 5-Fluoro-2-(2-methoxyethoxy)-N-(2-oxo-5-(2,4,6-trichlorophenyl)-2,3-dihydro-1H-benzo[e][1,4]diazepin-3-yl)nicotinamide], the “Replicon Assay Value TD50” value in data set [1] is over 25 µM. For the same compound, the IC50 in data set [2] stood at 116 nM; in data set [3], 46.4 nM.

In the case of `COCCOc1ncccc1C(=O)NC1N=C(c2c(Cl)cc(Cl)cc2Cl)c2ccccc2NC1=O` (stereo not drawn) [Example 31, 2-(2-Methoxyethoxy)-N-(2-oxo-5-(2,4,6-trichlorophenyl)-2,3-dihydro-1H-benzo[e][1,4]diazepin-3-yl)nicotinamide], the “Replicon Assay Value TD50” value in data set [1] is over 25 µM. Besides, the IC50 came out at 248 nM in data set [2] and 234 nM in data set [3].

For `COCCOc1ncc(Cl)cc1C(=O)NC1N=C(c2c(Cl)cc(Cl)cc2Cl)c2ccccc2NC1=O` (stereo not drawn) [Example 32, 5-Chloro-2-(2-methoxyethoxy)-N-(2-oxo-5-(2,4,6-trichlorophenyl)-2,3-dihydro-1H-benzo[e][1,4]diazepin-3-yl)nicotinamide], in data set [1], the “Replicon Assay Value TD50” value is over 25 µM. Moreover, the IC50 in data set [2] worked out at 178 nM; in data set [3], 136 nM.

On to `COCCOc1ncc(Br)cc1C(=O)NC1N=C(c2c(Cl)cc(Cl)cc2Cl)c2ccccc2NC1=O` (stereo not drawn) [Example 33, 5-Bromo-2-(2-methoxyethoxy)-N-(2-oxo-5-(2,4,6-trichlorophenyl)-2,3-dihydro-1H-benzo[e][1,4]diazepin-3-yl)nicotinamide], for which the “Replicon Assay Value TD50” value in data set [1] was over 25 µM. For the same compound, the IC50 turned out to be 265 nM in data set [2] and 487 nM in data set [3].

With `CCOCCOc1ncc(F)cc1C(=O)NC1N=C(c2c(Cl)cc(Cl)cc2Cl)c2ccccc2NC1=O` (stereo not drawn) [Example 34, 2-(2-Ethoxyethoxy)-5-fluoro-N-(2-oxo-5-(2,4,6-trichlorophenyl)-2,3-dihydro-1H-benzo[e][1,4]diazepin-3-yl)nicotinamide], the “Replicon Assay Value TD50” value in data set [1] was 11.884 µM. Moreover, the IC50 in data set [2] was 91 nM; in data set [3], 14.1 nM.

With `CO[C@@H](C)COc1ncc(F)cc1C(=O)NC1N=C(c2c(Cl)cc(Cl)cc2Cl)c2ccccc2NC1=O` (stereo partly drawn) [Example 35, 5-Fluoro-2-((S)-2-methoxypropoxy)-N-(2-oxo-5-(2,4,6-trichlorophenyl)-2,3-dihydro-1H-benzo[e][1,4]diazepin-3-yl)nicotinamide], the “Replicon Assay Value TD50” value in data set [1] is 24.614 µM. In addition, the figures for the IC50 in data set [2] and in data set [3] were 89.7 nM and 184 nM, respectively.
